# In US6083940A, “Method and composition for effecting contraception in a mammalian male” (SRI International, priority 1998, dated 2000):
# “Also recorded” adds a separate entry of the source.
# Legend:
# [1] = system: rat ventral prostate explant cultures (prostatein C3 mRNA); assay: Measurement of Prostatein C3 mRNA in rat ventral prostate explant culture
# Description: Testosterone was used as a control. […] Addition of androgens to the medium of rat prostate explant cultures maintains the mRNA for C3 subunit of prostatein, and measurement of either prostatein or its C3 subunit mRNA serves as a sensitive, androgen-responsive marker for the explant system.
# [2] = system: SEX ACCESSORY GLANDS AND TESTES OF INTACT SPRAGUE-DAWLEY MALE RATS; assay: Effect of Different Doses of Antiandrogen Compound III-1 on Sex Accessory Glands and Testes of Intact Sprague-Dawley Male Rats; assay type: in vivo, Sprague-Dawley rat; settings: for Body Weight / Epididymus weight / Seminal Vesicle weight / Ventral Prostate weight / Testes weight: N=4, mean ± SE; for Seminal Vesicle weight: P < .005; for Ventral Prostate weight: P < .01
# Description: The foregoing procedures were used to evaluate the effect of antiandrogen compound III-1 on the sex accessory glands and tests of intact Sprague-Dawley male rats. As may be seen in the Table, […], indicating antagonism on the effect of the testosterone produced.
# ^a Administered subcutaneously once daily for 12 days
# [3] = biological target: T1, Rat Prostate Androgen Receptor (Rattus norvegicus, UniProt P15207); assay: Rat Prostate Androgen Receptor Competition Assay; assay type: binding
# T1 construct: from tissue; host or cells: prostate cytosol (100,000×g supernatant) of gonadectomized male rats
# T1 sequence (P15207 1-902): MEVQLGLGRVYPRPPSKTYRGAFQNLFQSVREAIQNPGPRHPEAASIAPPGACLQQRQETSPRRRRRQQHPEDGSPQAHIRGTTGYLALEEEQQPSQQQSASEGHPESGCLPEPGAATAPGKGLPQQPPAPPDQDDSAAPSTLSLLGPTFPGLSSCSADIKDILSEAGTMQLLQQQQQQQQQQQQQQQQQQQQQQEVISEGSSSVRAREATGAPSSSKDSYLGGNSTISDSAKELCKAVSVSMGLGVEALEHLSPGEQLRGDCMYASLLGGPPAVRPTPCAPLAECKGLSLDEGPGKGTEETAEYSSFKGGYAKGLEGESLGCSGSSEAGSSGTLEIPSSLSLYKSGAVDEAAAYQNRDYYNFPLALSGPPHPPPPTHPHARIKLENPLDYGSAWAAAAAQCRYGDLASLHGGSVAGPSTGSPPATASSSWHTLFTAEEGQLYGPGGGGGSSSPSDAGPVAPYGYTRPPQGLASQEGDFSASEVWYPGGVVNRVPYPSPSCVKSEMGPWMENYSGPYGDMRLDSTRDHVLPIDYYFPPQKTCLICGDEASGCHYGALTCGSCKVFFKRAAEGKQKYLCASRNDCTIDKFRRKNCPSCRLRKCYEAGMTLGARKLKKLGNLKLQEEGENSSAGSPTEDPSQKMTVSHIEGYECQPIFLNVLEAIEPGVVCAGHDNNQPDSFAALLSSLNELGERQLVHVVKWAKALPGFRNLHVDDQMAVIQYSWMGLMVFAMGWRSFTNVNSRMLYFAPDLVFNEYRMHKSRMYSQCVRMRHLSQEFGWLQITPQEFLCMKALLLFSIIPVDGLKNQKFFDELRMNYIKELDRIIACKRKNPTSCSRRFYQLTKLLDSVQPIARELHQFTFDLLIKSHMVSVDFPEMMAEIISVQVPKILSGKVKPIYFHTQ
# Method: Male rats were gonadectomized 20-22 hours before killing. The animals were killed by decapitation and exsanguination. Prostates were kept on ice immediately after removal from the animals. After trimming off the fats, prostates were minced and homogenized in 3 volumes of Tris-HCl buffer (0.02 M, pH 7.4 containing 1.5 mM EDTA and 10% glycerol). The homogenate was centrifuged at 10,000×g for 10 minutes, and the resulting supernatant was centrifuged again at 100,000×g for 60 minutes. The final supernatant contained the androgen-binding receptor.
# The mixture was brought up to 1.0 mL with Tris-HCl buffer used for homogenizing the tissue. The mixture was then incubated at 4° C. for 4 hr., with occasional shaking. At the end of incubation, the receptor-bound androgen was isolated by ammonium sulfate precipitation.
# A 70% saturated ammonium sulfate solution was prepared and its pH is adjusted to 7.4 with aqueous NH3. To 1.0 mL of the labeled cytosol, 1.0 mL of the 70% saturated ammonium sulfate was added dropwise with gentle mixing. The sample was let stand at 0-4° C. for 35 minutes, then centrifuged at 10,000×g for 20 minutes. The precipitate was resuspended in 1.0 mL of the above-mentioned Tris-HCl buffer containing 2 mg of bovine albumin. The androgen-receptor complex was immediately reprecipitated by addition of equal volumes of 70% saturated ammonium sulfate. The sample was allowed to stand at 0-4° C. for another 45 minutes, then centrifuged again as outlined above. The supernatant was decanted and the walls of the tubes thoroughly dried with filter paper. The final precipitated protein was resuspended in 1.0 mL of the same buffer and then transferred quantitatively into a counting vial containing 10 mL of Scintisol for counting.
# [4] = system: SEX ACCESSORY GLANDS AND TESTES OF 22-DAY OLD CASTRATED MALE RATS; assay: Inhibition of Prostate Growth in Castrated Male Rats (testosterone supplemented); assay type: in vivo, rat
# Method: Male rats weighing 36 to 38 grams were castrated at the age of 22 days. […] The castrated rats were treated with the steroids once daily for ten consecutive days. On the tenth day following treatment, the rats were sacrificed and autopsied and final seminal vesicle weights and ventral prostate weights determined.
# [5] = system: 22 day old castrated male rats, seminal vesicle and ventral prostate; assay: standard Hershberger androgenic assay (agonist androgenic activity); assay type: in vivo, rat
# [6] = III-1 2500 nM with dihydrotestosterone 25 nM, N=2
# [7] = 10 mg/day subcutaneously once daily for 12 days, statistically lower than control
# [8] = 30 mg/day subcutaneously once daily for 12 days, statistically lower than control, P < .001
# [9] = 30 mg/day subcutaneously once daily for 12 days, statistically lower than control
# [10] = compound 30.0 mg/day + testosterone propionate 0.6 mg/day, ten days, mean ± SE
# [11] = doses of 0.8 mg, 1.6 mg, and 3.2 mg, versus vehicle alone
smiles,measurement,setting,value
"C[C@]12Cc3nonc3C[C@@H]1CC[C@@H]1[C@@H]2CC[C@@]2(C)[C@H]1CC[C@@]21CCCO1 [Compound III-1, 2',3'α-Tetrahydrofuran-2'-spiro-17-(5α-androstan(2,3-c]furazan]","C3/28s × 100, percent of dihydrotestosterone",[1]; [6],62%
same,"C3 m-RNA, percent of dihydrotestosterone",[1]; [6],43%
same,C3 m-RNA,"[1]; III-1 2500 nM with dihydrotestosterone 25 nM, N=2, 30 disks/explant, printed spread ± 1,603","95,130"
same,C3/28s × 100,"[1]; III-1 2500 nM with dihydrotestosterone 25 nM, N=2, printed spread ± 0.8",91.8
same,anti-androgenic activity,"[1]; III-1/dihydrotestosterone formulation, in words",marked anti-androgenic activity
same,Body Weight,"[2]; 10 mg/day subcutaneously once daily for 12 days, not statistically different from control",295 ± 5 g
same,Epididymus weight,"[2]; 10 mg/day subcutaneously once daily for 12 days, statistically lower than control, P < .001",524 ± 48 mg
same,Seminal Vesicle weight,[2]; [7],225 ± 40 mg
same,Ventral Prostate weight,[2]; [7],170 ± 13 mg
same,Testes weight,"[2]; 10 mg/day subcutaneously once daily for 12 days, statistically lower than control, P < .02",2.552 ± 111 g
same,Epididymus weight,[2]; [8],458 ± 39 mg
same,Testes weight,[2]; [8],1.942 ± .062 g
same,Seminal Vesicle weight,[2]; [9],242 ± 61 mg
same,Ventral Prostate weight,[2]; [9],148 ± 28 mg
same,Body Weight,"[2]; 30 mg/day subcutaneously once daily for 12 days, statistically lower than control, P < .05",277 ± 9 g
same,"magnitude of prostatic growth inhibition, dose dependence","[2]; Table 4, tentative conclusion",appears to be dose dependent
same,Relative Binding Affinity,"[3]; 5α-DHT set at 100, conc. of 5αDHT at 50% binding inhibition/conc. competitor at 50% binding inhibition × 100",5.8
same,Relative androgen receptor binding affinity,"[3]; Table 3, repeats the values of Table 1",5.8
same,affinity for the rat prostate androgen receptor compared with other known antiandrogens,[3]; in words,"higher affinity for the androgen rat prostate receptor than all of the other known antiandrogens except cyproterone acetate; also recorded: higher affinity for the rat ventral prostate androgen receptor than the steroidal antiandrogen zanoterone (WIN®49,596); also recorded: higher affinity to the androgen receptor than three other nonsteroidal antiandrogen receptor antagonists flutamide, which is available as an antiandrogen in the United States, nilutamide, developed by Roussel in France, and Casodex® (ICI 176,334)"
same,In Vivo Percent Inhibition of Ventral Prostate Weight,[4]; castrated male rats given supplemental testosterone,32.2 ± 9.49%
same,Final BW,[4]; [10],89 ± 5 g
same,Seminal Vesicle weight,[4]; [10],22.5 ± 1.1 mg
same,Ventral Prostate weight,[4]; [10],39.5 ± 4.1 mg
same,inhibition of prostate growth stimulated by exogenous testosterone,"[4]; male castrated rats, in words",inhibit prostate growth stimulated by exogenous testosterone
same,dose response curves for androgenic activity,[5]; 22 day old castrated male rats,Very flat dose response curves
same,agonist androgenic activity at the therapeutically effective antiandrogenic dose,"[5]; by extrapolation to 30.0 mg, castrated male rat",essentially devoid of agonist androgenic activity
same,seminal vesicle weight (agonist androgenic activity),[5]; [11],equal to the vehicle alone controls
same,ventral prostate weight (agonist androgenic activity),[5]; [11],equal to the vehicle alone controls
same,effect of drug dosage on prostate weight (FIG. 1),"[5]; increasing dose, in words","fairly steady prostate weight, even at higher doses"
